Test results published in US6440979B1, “Aryl isoguanines” (Euro-Celtique, S.A., priority 1994, dated 2002).
pIC50: −log10 of the molar value. Like-named read-outs stand apart in the source and are kept apart here.

How the values were obtained:
[1] = target: T1, Type V PDE isolated from platelets (Homo sapiens, UniProt O76074); assay: Type V PDE inhibition, hydrolysis of [3H]-cyclic GMP; format: biochemical; details: cyclic GMP 0.2 uM; 2.5% DMSO
T1 construct: Fractions that contain PDE V are pooled and dialyzed overnight; from tissue
Description: The Type V PDE is isolated using a procedure similar to that previously described by Weishaar et al., Hypertension 15:528, (1990). Briefly, 1-2 units of platelets are suspended in an equal volume of buffer A (20 mM Tris-HCl, pH 7.5, containing 2 mM magnesium acetate, 1 mM dithiothreitol, and 5 mM Na2EDTA) using a polytron. The proteinase inhibitor phenylmethylsulfonyl fluoride (PMSF) are also included in this buffer at a final concentration of 200 uM. This and all subsequent procedures are performed at 0-4° C. The homogenate is then centrifuges at 100,000×g for 60 minutes. The supernatant is then removed and filtered through four layers of gauze and applied to a DEAE-Trisacryl M column. The column is washed with several bed volumes of buffer B (20 mM Tris-HCl, pH 7.5, containing 2 mM magnesium acetate, 1 mM diothiothreitol, and 200 uM PMSF) and eluted by two successive linear NaCl gradients (0.05-0.15 M, 300 ml total; 0.15-0.40 M, 200 ml total). Five ml fractions are collected and assayed for cyclic AMP and cyclic GMP PDE activity. Fractions that contain PDE V are pooled and dialyzed overnight against 4 L of buffer C (20 mm Tris-HCl, pH 7.5, containing 2 mM magnesium acetate and proteinase inhibitors). The dialyzed PDE V is then concentrated to 10% of the original volume, diluted to 50% with ethylene glycol monoethyl ether and stored at −20° C. PDE V can typically be retained for up to four weeks with little or no loss of activity.
Enzyme activity are assessed by measuring the hydrolysis of [^3H]-cyclic […], as described by Thompson et al. (Thompson, W. J., Teraski, W. L., Epstein, P. N., Strada, S. J.: Adv. Cyclic Nucleotide Res. 10:69, 1979). The cyclic GMP concentration used in this assay is 0.2 uM, which approximates to the Km value. Protein concentration is adjusted to ensure that no more than 15% of the available substrate is hydrolyzed during the incubation period.
All test compounds are dissolved in dimethyl sulfoxide (final concentration of 2.5%). […] The reference Type V PDE inhibitor zaprinast is evaluated with each assay.
(§1) The compounds are tested over concentration range: 0.1, 1, 10, 100 uM (n=1), and IC50 determinations are made using 5 appropriate concentrations (n=2).

[2] = target: T2, Type III PDE isolated from human platelets (Homo sapiens, UniProt Q14432); assay: Type III PDE inhibition, hydrolysis of [3H]-cyclic AMP; format: biochemical
T2 construct: Fractions containing PDE III activity are pooled and dialyzed overnight; from tissue; host or cells: human platelets (100,000 x g supernatant, DEAE-Trisacryl M fraction)
Description: The Type III PDE is isolated from human platelets using a procedure similar to that previously described by Weishaar, R. E. et al., Biochem. Pharmacol., 35:787, 1986. Briefly, 1-2 units of platelets are suspended in an equal volume of buffer (20 mM Tris-HCl, pH 7.5, containing 2 mM magnesium acetate, 1 mM dithiothreitol, and 5 mM Na2 EDTA). The proteinase inhibitor phenylmethyl-sulfonyl fluoride (PMSF) is also included in this buffer at a final concentration of 200 μM. The suspension is homogenized using a polytron and the homogenate centrifuged at 100,000×g for 60 minutes. This and all subsequent procedures are performed at 0-4° C. The supernatant is then filtered through four layers of gauze and applied to a DEAE-Trisacryl M column, previously equilibrated with buffer B (20 mM Tris-HCl, pH 7.5, containing 1 mM magnesium acetate, 1 mM dithiothreitol and 200 μM PMSF). After application of the sample, the column is washed with several bed volumes of buffer B, after which the different forms of PDE are eluted from the column using two successive linear NaCl gradients (0.05-0.15 M, 300 ml total; 0.15-0.40 Ma 200 ml total); Five ml fractions are collected and assayed for cyclic AMP and cyclic GMP PDE activity., Fractions containing PDE III activity are pooled and dialyzed overnight against 4 L of buffer B. The dialyzed PDE III is then concentrated to 10% of the original volume, diluted to 50% with ethylene glycol monoethyl ether and stored at −20° C. PDE III can typically be retained for up to four weeks with little or no loss of activity.
(§2) Enzyme activity is assessed by measuring the hydrolysis of [(^3H]-cyclic AMP, as described by Thompson, W. J. et al., Adv. Cyclic Nucleotide Res. 10:69, 1979. The cyclic AMP concentration used in this assay is 0.2 μM, which approximates to the Km value. Protein concentration is adjusted to ensure that no more than 15% of the available substrate is hydrolyzed during the incubation period.
(§3) All test compounds are dissolved in dimethyl sulfoxide (final concentration of 2.5%). This concentration of dimethyl sulfoxide inhibits enzyme activity by approximately 10%.
as §1

[3] = test system: PDE IV isolated from bovine tracheal smooth muscle; assay: Type IV PDE inhibition, hydrolysis of [3H]-cyclic AMP; format: biochemical; details: cyclic AMP 0.2 μM; 2.5% DMSO
Excerpt: The PDE IV inhibitory compounds of the present invention may be examined for their PDE IV inhibitory effects via the techniques set forth in the following examples, wherein the ability of the compounds to inhibit PDE IV isolated from bovine tracheal smooth muscle is set forth.
The Type IV PDE is isolated from bovine tracheal smooth muscle using a procedure similar to that previously described by Silver, P. J. et al., Eur. J. Pharmacol. 150:85,1988. Briefly, smooth muscle from bovine trachea is minced and homogenized using a polytron in 10 volumes of an extraction buffer containing 10 mm Tris-acetate (pH 7.5), 2 mM magnesium chloride, 1 mM dithiothreitol and 2,000 units/ml of aprotinin. This and all subsequent procedures are performed at 0-4° C. The homogenate is sonicated and then centrifuged at 48,000×g for 30 minutes. The resulting supernatant is applied to a DEAE Trisacryl M column previously equilibrated with sodium acetate and dithiothreitol. After applications of the sample, the column is washed with sodium acetate/dithiothreitol, after which the different forms of PDE are eluted from the column using a linear Tris-HCl/NaCl gradient. Fractions containing Type IV PDE are collected, dialyzed and concentrated to 14% of the original volume. The concentrated fractions are diluted to 50% with ethylene glycol and stored at −20° C.
as §2, with “[^3H]-cyclic” for “[(^3H]-cyclic”, “approximates” for “approximates to”
as §3, §1

[4] = cyclic AMP 0.2 μM, 2.5% DMSO, read-out: PDE ACTIVITY IC50 PDE III

T2 sequence (Q14432 whole entry): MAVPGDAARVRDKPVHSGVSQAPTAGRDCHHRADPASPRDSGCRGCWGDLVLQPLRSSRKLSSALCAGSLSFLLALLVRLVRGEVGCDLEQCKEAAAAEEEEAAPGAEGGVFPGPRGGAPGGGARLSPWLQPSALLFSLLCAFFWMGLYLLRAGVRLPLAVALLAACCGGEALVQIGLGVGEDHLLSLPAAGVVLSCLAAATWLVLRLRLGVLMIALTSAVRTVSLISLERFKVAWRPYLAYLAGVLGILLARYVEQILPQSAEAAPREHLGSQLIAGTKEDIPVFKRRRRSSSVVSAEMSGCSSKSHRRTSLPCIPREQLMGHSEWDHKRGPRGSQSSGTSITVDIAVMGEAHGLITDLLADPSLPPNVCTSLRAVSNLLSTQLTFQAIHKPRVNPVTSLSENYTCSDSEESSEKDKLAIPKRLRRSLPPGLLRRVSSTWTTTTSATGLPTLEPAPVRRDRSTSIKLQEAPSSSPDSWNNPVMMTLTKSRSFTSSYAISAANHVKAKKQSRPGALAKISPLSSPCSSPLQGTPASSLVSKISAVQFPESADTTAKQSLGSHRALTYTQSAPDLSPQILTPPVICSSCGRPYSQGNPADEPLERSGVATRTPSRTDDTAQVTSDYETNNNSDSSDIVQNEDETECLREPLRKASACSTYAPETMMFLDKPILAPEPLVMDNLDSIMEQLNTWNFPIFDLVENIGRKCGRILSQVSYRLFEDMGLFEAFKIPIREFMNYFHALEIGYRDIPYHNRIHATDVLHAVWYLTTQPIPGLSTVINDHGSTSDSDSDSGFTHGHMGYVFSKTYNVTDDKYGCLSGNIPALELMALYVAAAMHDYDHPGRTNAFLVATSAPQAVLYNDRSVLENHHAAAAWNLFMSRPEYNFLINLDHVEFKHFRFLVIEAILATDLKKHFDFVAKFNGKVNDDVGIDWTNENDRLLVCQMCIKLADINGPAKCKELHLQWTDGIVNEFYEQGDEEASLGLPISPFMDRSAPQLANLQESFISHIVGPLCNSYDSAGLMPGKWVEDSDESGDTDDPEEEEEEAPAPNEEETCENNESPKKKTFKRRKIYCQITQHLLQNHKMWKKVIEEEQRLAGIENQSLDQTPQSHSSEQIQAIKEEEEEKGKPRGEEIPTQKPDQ

melting point | pIC50 [1] | pIC50 [2, 4] | pIC50 ([2]; read-out: IC50 for PDE III inhibition) | pIC50 [3] | Structure (SMILES)
192 to 193 °C | – | – | – | – | COc1ccc(Cn2c(=O)[nH]c(=S)c3[nH]c(C(C)C)nc32)cc1OC1CCCC1 (hydrate or solvate) [Ex. 1, 3-(3-Cyclopentyloxy-4-methoxy-benzyl)-8-isopropyl-6-thioxanthine]
– | 4.59 | 4.60 | ~4.60 | – | COc1ccc(Cn2c(=O)[nH]c(=S)c3[nH]c(C(C)C)nc32)cc1OC1CCCC1 [Ex. 1, 3-(3-Cyclopentyloxy-4-methoxy-benzyl)-8-isopropyl-6-thioxanthine]
313 to 317 °C | – | 4.60 | – | 4.11 | O=c1[nH]c(=S)c2[nH]cnc2n1Cc1ccc(Cl)cc1 [Ex. 2, 3-(4-Chlorobenzyl)-6-thioxanthine]
310 to 314 °C (dec.) | – | 3.67 | – | 4.74 | CC(C)c1nc2c([nH]1)c(=S)[nH]c(=O)n2Cc1ccncc1 [Ex. 3, 8-Isopropyl-3-(4-picolyl)-6-thioxanthine]
218 to 220 °C | 6.15 | 4.36 | – | 5.39 | CC(C)c1nc2c([nH]1)c(=S)[nH]c(=O)n2Cc1cccc(Cl)c1 [Ex. 4, 3-(3-Chlorobenzyl)-8-isopropyl-6-thioxanthine]
– | 5.70 | 4.54 | – | 5.07 | CC(C)c1nc2c([nH]1)c(=S)[nH]c(=O)n2Cc1ccc(Cl)cc1 [Ex. 5a, 3-(4-Chlorobenzyl)-8-isopropyl-6-thioxanthine]
– | 6.30 | 3.50 | – | 5.03 | CCNc1nc(=O)n(Cc2ccc(Cl)cc2)c2nc(C(C)C)[nH]c12 [Ex. 5b, 3-(4-Chlorobenzyl)-N^6-ethyl-8-isopropyl-isoguanine]
208 to 210 °C | – | 3.31 | – | 4.62 | CCCNc1nc(=O)n(CC2CC2)c2nc(C(C)C)[nH]c12 [Ex. 6, 3-Cyclopropylmethyl-8-isopropyl-N^6-propyl-isoguanine]
– | – | 3.68 | – | 4.29 | CCNc1nc(=O)n(CC)c2nc(C3CC3)[nH]c12 [Ex. 7, 8-Cyclopropyl-3, N^6-diethyl-isoguanine]
195 to 197 °C | 4.62 | 4.55 | – | 5.40 | CCn1c(=O)[nH]c(=S)c2[nH]c(Cc3ccc(OC)c(OC4CCCC4)c3)nc21 [Ex. 8, 8-(3-cyclopentyloxy-4-methoxybenzyl)-3-ethyl-6-thio-xanthine]
237 to 239 °C | – | 4.63 | – | 5.07 | CCCn1c(=O)[nH]c(=S)c2[nH]c(Cc3ccc(OC)c(OC)c3)nc21 [Ex. 9, 8-(3,4-dimethoxybenzyl)-3-propyl-6-thio-xanthine]
220 to 223 °C | 5.42 | 5.57 | – | 5.55 | CCCn1c(=O)[nH]c(=S)c2[nH]c(Cc3ccc4ccccc4c3)nc21 [Ex. 10, 8-(2-naphthylmethyl)-3-propyl-6-thio-xanthine]
– | 4.18 | 3.51 | – | – | CC(C)c1nc2c([nH]1)c(=S)[nH]c(=O)n2-c1cccc(Cl)c1 [Ex. 11, 3-(3-Chlorophenyl)-8-isopropyl-6-thioxanthine]
– | – | 3.10 | – | 5.59 | COc1ccc(C2CNC(=O)C2)cc1OC1CCCC1 (centres unmarked) [Rolipram, reference compound]
110 to 115 °C | – | – | – | – | CCNc1nc(=O)n(Cc2ccc(OC)c(OC3CCCC3)c2)c2nc(C(C)C)[nH]c12 [compound 12, 3-(3-Cyclopentyloxy-4-methoxy-benzyl)-N^6-ethyl-8-isopropyl-isoguanine]
